Values of other authors as cited in patent publication US20220265670A1, “COMPOSITION AND USE THEREOF FOR THE TREATMENT OF CUTANEOUS MASTOCYTOSIS” (AC BIOSCIENCE SA, priority 2019, published 2022).

Legend:
c-Kit = c-Kit (Homo sapiens, UniProt P10721)
[1] = tested on: JM-mutated (exon 11) c-Kit; conditions: cellular level; read-out: IC50, JM-mutated (exon 11) c-Kit-dependent cell proliferation
PDGF-R = conditions: cellular level; read-out: IC50, PDGF-R-dependent cell proliferation
mast degranulation = conditions: low masitinib concentrations

Chain of c-Kit (P10721 26-976): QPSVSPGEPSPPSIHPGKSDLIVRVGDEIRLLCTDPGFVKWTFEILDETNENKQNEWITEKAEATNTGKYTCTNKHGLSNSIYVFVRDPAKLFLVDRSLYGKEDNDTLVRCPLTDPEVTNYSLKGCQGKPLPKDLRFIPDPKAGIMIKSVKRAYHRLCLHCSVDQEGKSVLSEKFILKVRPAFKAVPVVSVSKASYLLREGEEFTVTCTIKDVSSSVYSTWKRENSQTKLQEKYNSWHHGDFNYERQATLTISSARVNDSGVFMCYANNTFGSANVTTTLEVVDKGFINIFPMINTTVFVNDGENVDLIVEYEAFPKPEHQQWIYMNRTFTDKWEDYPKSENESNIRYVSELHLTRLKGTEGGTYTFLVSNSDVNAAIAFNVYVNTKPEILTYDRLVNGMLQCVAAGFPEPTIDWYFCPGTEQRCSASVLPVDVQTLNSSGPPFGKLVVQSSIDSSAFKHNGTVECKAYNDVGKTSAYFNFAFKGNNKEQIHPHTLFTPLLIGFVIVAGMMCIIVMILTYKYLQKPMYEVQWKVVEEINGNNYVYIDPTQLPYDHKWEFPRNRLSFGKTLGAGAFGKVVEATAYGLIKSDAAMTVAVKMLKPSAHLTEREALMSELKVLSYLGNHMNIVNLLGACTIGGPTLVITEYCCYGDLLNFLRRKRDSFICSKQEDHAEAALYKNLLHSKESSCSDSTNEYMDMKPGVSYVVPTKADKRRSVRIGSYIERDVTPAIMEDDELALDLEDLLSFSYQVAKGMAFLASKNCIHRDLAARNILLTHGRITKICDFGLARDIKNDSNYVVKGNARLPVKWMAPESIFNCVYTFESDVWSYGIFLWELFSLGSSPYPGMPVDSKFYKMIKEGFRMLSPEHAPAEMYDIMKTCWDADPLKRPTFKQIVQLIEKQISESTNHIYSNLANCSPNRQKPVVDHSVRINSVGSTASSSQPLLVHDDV

SMILES	inhibitory profile relative to masitinib (c-Kit)	IC50 [1] [nM]	IC50 (PDGF-R) [nM]	inhibition of mast degranulation (mast degranulation)
Cc1ccc(NC(=O)c2ccc(CN3CCNCC3)cc2)cc1Nc1nc(-c2cccnc2)cs1 [AB3280]	essentially the same inhibitory profile as masitinib, even though slightly less potent than masitinib	–	–	–
Cc1ccc(NC(=O)c2ccc(CN3CCN(C)CC3)cc2)cc1Nc1nc(-c2cccnc2)cs1 [Masitinib]	–	5	[…]	significant inhibition of mast degranulation
